Our source for the IC50 values is patent US6541503B2, “Substituted oxindole derivatives as protein tyrosine kinase and as protein serine/threonine kinase inhibitors” (SmithKline Beecham Corporation, priority 1997, dated 2003).

One assay addresses CDK1 (Homo sapiens, UniProt P06493). Put plainly: Cyclin dependent protein kinase substrate phosphorylation assay, CDK1. In kind it is biochemical. The conditions noted are these: read-out: CDK1 IC50. Here is the method: Cyclin dependent protein kinase assays utilized the peptides Biotin-aminohexyl-[…] and Biotin-aminohexyl-[…]-NH2 as phosphoryl group acceptors. CDK1 and CDK2 were both expressed utilizing a baculovirus expression system and were partially purified to comprise 20-80% of total protein, with no detectable competing reactions present. Typically, assays were performed by incubating either enzyme (0.2-10 nM), with and without inhibitor, one of the two peptide substrates ([…]), [γ-^32P]ATP ([…]), and 10-20 mM Mg^2+ for periods of time generally within the range 10-120 min. Reactions were terminated with 0.2-2 volumes of either 20% acetic acid or 50-100 mM EDTA buffered to pH 7 (substrate consumption<20%). The buffer employed in enzyme assays was either 30 mM HEPES 7.4 containing 0.15 M NaCl and 5% DMSO, the buffer 50 mM MOPS 7.0 containing 0.15 M NaCl and 5% DMSO, or the buffer 100 mM HEPES pH 7.5 containing 0.1 mg /mL BSA and 5% DMSO. Inhibitors were diluted in 100% DMSO prior to addition into the assay. Detection of peptide phosphorylation was accomplished by scintillation counting following either collection of peptide onto phosphocellulose filters (for reactions stopped with acetic acid), collection of peptide in wells of 96 well plates coated with Streptavidin (Pierce) (reactions were stopped with EDTA), or addition of Avidin coated Scintillant impregnated beads (Scintillation Proximity Assays from Amersham, reactions were stopped with EDTA).

A further assay addresses CDK2 (Homo sapiens, UniProt P24941). The experiment in a line: Cyclin dependent protein kinase substrate phosphorylation assay, CDK2. The assay is classed as biochemical.
The test system of assay [1] is RKO colon adenocarcinoma cells. Put plainly: FACS assay (cell death by flow cytometry), RKO. The assay is classed as cell-based, human. The note with it: 50% cell death, 72 h, read-out: FACS RKO IC50. Here is the method: (§1) These assays allow determination of both cell death and changes in cell cycle profile in cells following treatment of the compound. The assay is performend as follows:
(§2) 1. Cells are incubated in DMEM to which 10% FCS has been added in a humidified incubator at 37° C. and 5% by volume of CO2 in air. The cells are innoculated in 6-well plates at a density of 0.5-5×10^5 cells per well.
(§3) 2. The test compound is added in serial dilutions 24-36 h after plating in 0.5% DMSO. The plates are then incubated a further 72 h in the presence of the compound. During this time, cells in control cultures undergo at least three cell divisions.
(§4) 3. After incubation, the media is collected and cells are harvested by trypsinization. The cells and media are pooled and pelleted by centrifugation.
(§5) 4. The cell pellet is fixed in a final volume of 3 mL of 50% ice cold MeOH and incubated for a minimum of 30 min at −20° C.
(§6) 5. The cells are pelleted by centrifugation and resuspended in 0.5 mL PBS containing 1%FCS, […] Propidium Iodide (PI) and 5 mg/mL RNase A and incubated 30 min at 37° C. in the dark.
(§7) 6. The samples are analysed by flow cytometry using the relative incorporation of PI as a measure of DNA content of each cell. The % Dead cells is recorded as % of events with less than 2N DNA.
(§8) HDF are normal diploid fibroblast cells. RKO are colon adenocarcinoma cells and MES/SA are […].
In general terms: In flow cytometry, cells or beads pass a laser one at a time.

Assay [2] deals with human diploid fibroblasts (HDF-3). Put plainly: G1-S progression assay (BrdU incorporation). The assay is classed as cell-based. The conditions noted are these: read-out: G1/S Chkpt IC50. Here is the method: This assay is designed to determine the ability of compounds to inhibit progression of cells from G1 into S-phase. […] The protocol is as follows:
(1) Grow human diploid fibroblasts (HDF-3) in 100 mm tissue culture dish to confluency. (2) Plate 6-7×10^3 cells/well in a 96 well plate in 100 μl of DMEM. (3) After 16-17 h add various dilutions of test compounds (0.045-100 μM). Dilute compound in DMEM containing DMSO and add 100 μl to each well so that the DMSO conc. is 0.6-0.8% in 200 μl final volume. (4) Two h after addition of compound, add 20 ul of 100 μM BrdU (final conc. 10 μM) Make 100 μM solution in DMEM from 10 mM stock solution. (5) After 4 h, add 200 μl PBS to each well and remove the contents of the wells by inverting the plate and soaking on to the paper towel. Repeat the washing step three times, with 400 ul PBS each time. (6) Fix the cells and denature the DNA by adding 200 μl fixation/denaturation solution to each well for 30-40 min. (7) Remove the fixation/denaturation solution by tapping the plate on the paper towel and add 75 ul of anti BrdU peroxidase antibody to each well. (dilute the antibody to 0.1 U/mL from 15 U/mL stock in PBS containing 1% BSA, Fraction V). Incubate the plate O/N at 4° C. (8) Remove the antibody solution and wash wells four times with 400 μl of PBS. Let the wash solution stay for 3-4 min during each wash. (9) Drain the wells and add 100 μl of chemiluminiscence Elisa reagent (Prepare the reagent 15-20 min before use to bring it to rt by mixing 100 parts of reagent A with 1 part of reagent B). (10) Read the plate in a luminometer. Take 2-3 readings within 6-7 min. Perform the following controls:
Deoxybromouridine (BrdU), anti BrdU peroxidase antibodies, fixation/denaturation solution, chemiluminiscence reagent and BSA Fraction V, were obtained from Boehringer Mannheim. The 96-well white plate with clear bottom were purchased from Corning Costar Corporation. Dulbecco's Modified Eagle Medium containing high glucose, L-glutamine and pyridoxine HCl was obtained from GIBCO BRL.
Background: Dividing cells build labelled thymidine or BrdU into new DNA.

Another assay concerns MDA MB468. Put plainly: MTT assay, MDA MB468. The assay is classed as cell-based, human. The note with it: read-out: MTT MDA MB468 IC50. Here is the method: (§9) Compounds are tested for their ability to inhibit cell proliferation and cell viability. The metabolic conversion of 3-(4,5-dimethylthiazol-2-yl)-2,5-diphenyltetrazolium bromide (MTT, Sigma #M2128) to a reduced form is a commonly used measure of cellular viability. Following is the procedure:
(§10) Cells are maintained in 75 cm^2 tissue culture flasks until ready for use. The cells are grown and plated for the assay in Dulbecco's modified Eagle's media (DMEM) containing 10% fetal bovine serum. For example, the following cell lines can be used: a) human foreskin fibroblasts (HFF); b) HT29 (human colon carcinoma cell line); c)MDA-MB-468 (human breast carcinoma cell line); d) RKO (human colon adenocarcinoma cell line); e) SW620 (human colon carcinoma cell line); f) A549 (human lung carcinoma cell line); and g) MIA PACA (human pancreatic carcinoma cell line). Cells are maintained at 37° C. in 10% CO2, 90% humidified air. Cells are plated in 96-well tissue culture plates at the densities listed below. 100 μL of cell suspension is added to each well of the 96-well plate except the top row of the plate which contains no cells and serves as a reference for the spectrophotometer.
(§11) Cells are incubated overnight in DMEM containing 10% fetal bovine serum at 37° C. in 10% CO2, 90% humidified air prior to dosing. […] Compounds with solubilities of less than 30 μM are dosed at the highest soluble concentration. Stock solutions of compounds are made in 100% dimethyl sulfoxide (DMSO). Stock solutions are diluted in DMEM containing 100 μg/ml gentamicin and 0.3 to 0.6% DMSO at the twice the highest concentration to be placed on the cells. If compounds have been dissolved in DMSO the final concentration of DMSO on the cells is kept below 0.3%. Three-fold serial dilutions are performed on each compound to prepare 10 concentrations of the compound for dosing. 100 μl of diluted compound is added to the 100 μl of media currently on the dish. For each concentration of compound, 2-4 replicate wells are prepared.
(§12) Cells are returned to incubator and allowed to proliferate in the presence of compound for 72 h before addition of MTT. MTT is prepared in phosphate buffered saline (Irvine Scientific #9240) at a concentration of 2 mg/ml. 50 μl per well of MTT solution is added to the 200 μl of media to yield a final concentration of 0.4 mg/ml and plates are returned to the incubator for 4 h. After 4 h incubation the media, compound and MTT mixture is aspirated from the plates and 100 μl of 100% DMSO is added to each well in addition to 25 μl of Sorenson's Buffer (0.1M glycine, 0.1M NaCl, pH 10.5). Quantitation of metabolic reduction of MTT in each plate is performed by reading optical density at 570 nm wavelength on a Molecular Devices UVmax microplate reader. Growth inhibition curves and 50% inhibitory concentrations are determined using Microsoft Excel.

For assay [3], the system named is RKO colon adenocarcinoma cells. The experiment in a line: MTT assay, RKO. The conditions noted are these: 72 h, read-out: MTT RKO IC50. In kind it is cell-based, human. Here is the method: as §9, §10, §11, §12, §8
(Formazan colour is commonly taken as a measure of viable cells.)

Assay [4] relates to MES/SA ovarian carcinoma cells. The experiment in a line: FACS assay (cell death by flow cytometry), MES/SA. The assay is classed as cell-based. The conditions noted are these: 50% cell death, 72 h, read-out: FACS MES/SA IC50. Here is the method:
as §1, §2, §3, §4, §5, §6, §7, §8

Assay [5] deals with HDF normal diploid fibroblast cells. Put plainly: FACS assay (cell death by flow cytometry), HDF. In kind it is cell-based, human. The conditions noted are these: 50% cell death, 72 h; read-out: FACS HDF IC50. Here is the method:
as §1, §2, §3, §4, §5, §6, §7, §8

Assay [6] shares this test system. Put plainly: MTT assay, HDF. In kind it is cell-based, human. The note with it: 72 h; read-out: MTT HDF IC50. Here is the method: as §9
as §10, with “100 μL of cell suspension is added to each well of the 96-well plate except the top row of the plate which contains no cells and serves as a reference for the spectrophotometer.” left out
Cells are returned to incubator and allowed to proliferate in the presence of compound for 72 h before addition of MTT. […] Quantitation of metabolic reduction of MTT in each plate is performed by reading optical density at 570 nm wavelength on a Molecular Devices UVmax microplate reader. Growth inhibition curves and 50% inhibitory concentrations are determined using Microsoft Excel. […]

Where two headings read alike, the source gives them in different places. Bounds are passed on as bounds.

Chain of CDK1 (P06493 whole entry, species assumed): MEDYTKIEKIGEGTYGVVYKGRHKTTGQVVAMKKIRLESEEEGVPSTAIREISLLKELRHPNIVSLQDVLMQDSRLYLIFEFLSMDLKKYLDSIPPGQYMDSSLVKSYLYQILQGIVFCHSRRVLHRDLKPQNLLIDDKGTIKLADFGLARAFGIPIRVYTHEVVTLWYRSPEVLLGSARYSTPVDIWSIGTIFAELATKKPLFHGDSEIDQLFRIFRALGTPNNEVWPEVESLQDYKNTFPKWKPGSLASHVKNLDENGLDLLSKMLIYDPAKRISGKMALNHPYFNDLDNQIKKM
Chain of CDK1 (P14635 whole entry partner, species assumed): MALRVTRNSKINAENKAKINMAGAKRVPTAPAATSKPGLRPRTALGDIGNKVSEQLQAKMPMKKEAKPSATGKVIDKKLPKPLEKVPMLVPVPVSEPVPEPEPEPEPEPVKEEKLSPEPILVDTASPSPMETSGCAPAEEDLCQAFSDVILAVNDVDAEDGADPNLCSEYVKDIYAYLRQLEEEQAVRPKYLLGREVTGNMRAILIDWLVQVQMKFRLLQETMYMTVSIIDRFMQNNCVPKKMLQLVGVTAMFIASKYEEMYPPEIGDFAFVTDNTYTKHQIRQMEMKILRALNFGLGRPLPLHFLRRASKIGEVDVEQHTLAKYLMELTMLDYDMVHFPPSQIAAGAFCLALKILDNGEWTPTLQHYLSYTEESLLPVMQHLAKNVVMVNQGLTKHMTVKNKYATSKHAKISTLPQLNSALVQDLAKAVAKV
Procedure for CDK2: CDK1 and CDK2 were both expressed utilizing a baculovirus expression system and were partially purified to comprise 20-80% of total protein, with no detectable competing reactions present. […] Reactions were terminated with 0.2-2 volumes of either 20% acetic acid or 50-100 mM EDTA buffered to pH 7 (substrate consumption<20%). The buffer employed in enzyme assays was either 30 mM HEPES 7.4 containing 0.15 M NaCl and 5% DMSO, the buffer 50 mM MOPS 7.0 containing 0.15 M NaCl and 5% DMSO, or the buffer 100 mM HEPES pH 7.5 containing 0.1 mg /mL BSA and 5% DMSO. Inhibitors were diluted in 100% DMSO prior to addition into the assay. Detection of peptide phosphorylation was accomplished by scintillation counting following either collection of peptide onto phosphocellulose filters (for reactions stopped with acetic acid), collection of peptide in wells of 96 well plates coated with Streptavidin (Pierce) (reactions were stopped with EDTA), or addition of Avidin coated Scintillant impregnated beads (Scintillation Proximity Assays from Amersham, reactions were stopped with EDTA).

Consider `COC(=O)c1ccc2c(c1)/C(=C/Nc1ccc(S(N)(=O)=O)cc1)C(=O)N2` [Example 27, 2-Oxo-3-(4-sulfamoyl-phenylamino-methylene)-2,3-dihydro-1H-indole-5-carboxylic acid methyl ester], for which, on CDK1, the IC50 was 11 to 50 nM.

As to `CCC(C)Cc1cccc2c1C(=NNc1ccc(S(N)(=O)=O)cc1)C(=O)N2` (centres unmarked) [Example 11, 4-{N′-[4-(2-methylbutyl)-2-oxo-1,2-dihydro-indol-3-ylidene]-hydrazino}-benzenesulfonamide], the IC50 lay in the range of 1 to 10 nM at CDK2; 1100 to 5000 nM in assay [1] (Homo sapiens); 1100 to 5000 nM in assay [2] (Homo sapiens, Fibroblast); 11 to 50 nM on CDK1.

Regarding `CN(C)S(=O)(=O)c1ccc(NC=C2C(=O)Nc3ccc(-c4cnco4)cc32)cc1` [Example 35, N,N-Dimethyl-4-[(5-oxazol-5-yl-2-oxo-1,2-dihydro-indol-3-ylidenemethyl)-amino]-benzenesulfonamide], the IC50 against CDK2 was 1 to 10 nM; with MDA MB468 (Homo sapiens, MDA-MB-468, 72 h), greater than 5000 nM; in assay [1] (Homo sapiens), 1100 to 5000 nM; in [3] (Homo sapiens) it was 1100 to 5000 nM; in [4] (Homo sapiens, MES-SA), greater than 5000 nM; on CDK1 it was 11 to 50 nM.

On to `NS(=O)(=O)c1ccc(NN=C2C(=O)Nc3ccc(-c4cnco4)cc32)cc1` [Example 36, 4-[1-(5-Oxazol-5-yl-2-oxo-1,2-dihydro-indol-3-ylidene)-hydrazino]-benzenesulfonamide], for which the IC50 in the assay on MDA MB468 (72 h) was 600 to 1000 nM; in [1], 600 to 1000 nM; in assay [2], 600 to 1000 nM; in [5] it was greater than 5 µM; in assay [3] it was 600 to 1000 nM; in [4], 100 to 500 nM. For the same compound, in assay [6], the IC50 was 1.1 to 5 µM.

Regarding `O=C1Nc2ccc3ncsc3c2C1=CNc1ccc2nn[nH]c2c1` [Example 101, 8-(3H-Benzotriazol-5-ylaminomethylene)-6,8-dihydro-1-thia-3,6-diaza-as-indacene-7-one], the IC50 on CDK2 was 11 to 50 nM; with MDA MB468 (Homo sapiens, MDA-MB-468, 72 h), 1100 to 5000 nM; in [1] (Homo sapiens), greater than 5000 nM; on CDK1, 51 to 100 nM.

Consider `CC(C)COC(=O)c1ccc2c(c1)C(=CNc1ccc(S(N)(=O)=O)cc1)C(=O)N2` [Example 103, 2-Oxo-3-(4-sulfamoyl-phenylamino-methylene)-2,3dihydro-1H-indole-5-carboxylic acid isobutyl ester], for which the IC50 at CDK2 was 1 to 10 nM; with MDA MB468 (Homo sapiens, MDA-MB-468, 72 h), 1100 to 5000 nM; in [3] (Homo sapiens), 1100 to 5000 nM; on CDK1 it was 11 to 50 nM.
